Source: patent US4438136A, “Prostaglandins” (National Research Development Corporation, priority 1979, dated 1984)

Legend:
Human Platelets [1] = target: T1, Human Platelets (Homo sapiens, UniProt P21731); assay: Human Platelet System: antagonism of platelet aggregation induced by 11,9-(epoxymethano) PGH2; format: cell-based; details: for Kb: vs 11,9-epoxymethano PGH2 (1×10^-7 to 5×10^-7 M), compound added 5 minutes before, Gaddum-Schild, read-out: AFFINITY CONSTANTS (KB) Human Platelets (converted); for inhibition of aggregatory activity of 11,9-(epoxymethano) PGH2 / antagonism in platelet test: human platelets in vitro, in words
T1 construct: Platelet-rich plasma is obtained from fresh, citrated human blood; endogenous in cells; host or cells: human platelets (platelet-rich plasma from citrated blood)
T1 sequence (P21731 1-343): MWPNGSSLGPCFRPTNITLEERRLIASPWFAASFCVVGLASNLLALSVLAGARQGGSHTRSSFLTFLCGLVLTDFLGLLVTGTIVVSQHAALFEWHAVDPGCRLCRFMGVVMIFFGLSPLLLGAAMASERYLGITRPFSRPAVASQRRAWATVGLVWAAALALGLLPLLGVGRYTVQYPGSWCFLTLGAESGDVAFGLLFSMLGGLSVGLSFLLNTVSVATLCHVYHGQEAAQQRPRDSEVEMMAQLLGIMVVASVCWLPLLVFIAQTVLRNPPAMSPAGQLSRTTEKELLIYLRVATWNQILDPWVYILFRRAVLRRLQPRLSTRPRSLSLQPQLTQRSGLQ
Text: (§1) It is believed that such inhibition is the result of the compounds being thromboxane antagonists and the activity of the compounds is for convenience hereinafter discussed in these terms. […] The related compounds described and claimed in our copending application Ser. No. 431,554 filed Sept. […] Structural features which tend to endow these compounds with a more pure antagonist form of activity are described in that application. It has been found, however, that the compounds of the present invention generally show little tendency to deviate from pure antagonist activity. Activity has also been observed on compounds according to the present invention on guinea pigs tracheal muscle.
(§2) Various of the compounds described in Examples 1 to 3 are tested for biological activity in the human platelet and rabbit aorta systems.
Platelet-rich plasma is obtained from fresh, citrated human blood. Addition of the 11,9-epoxymethano analogue of PGH2 (1×10^-7 to 5×10^-7 M) causes immediate aggregation recorded as an increase in light transmission (600 nm). In a second experiment the individual compounds are added 5 minutes previously to addition of the PGH2 analogue. The dose of the PGH2 analogue added is then increased to a level which gives a similar response to that obtained in the absence of antogonist. The affinity constant, KB, for the compound is calculated according to the Gaddum-Schild Equation (based on Law of Mass Action).
(§3) [B]=molar concentration of compound

Rabbit Aorta = target: T2, Rabbit Aorta (Oryctolagus cuniculus, UniProt Q6WQI8); assay: Rabbit Aorta System: antagonism of contraction of aorta strips induced by 11,9-(epoxymethano) PGH2; format: cell-based; details: for Kb: read-out: AFFINITY CONSTANTS (KB) Rabbit Aorta (converted); for antagonist/agonist character in rabbit aorta strip test: in words
T2 construct: contraction by 11,9-(epoxymethano)PGH2 (U-46619)
T2 sequence (Q6WQI8 1-233): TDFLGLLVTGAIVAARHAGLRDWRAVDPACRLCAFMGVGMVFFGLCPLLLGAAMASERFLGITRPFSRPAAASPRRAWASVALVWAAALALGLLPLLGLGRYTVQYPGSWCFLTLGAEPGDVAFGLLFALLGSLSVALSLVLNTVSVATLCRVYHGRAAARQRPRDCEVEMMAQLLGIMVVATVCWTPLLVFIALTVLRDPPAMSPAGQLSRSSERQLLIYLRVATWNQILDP
Text: as §1, §2, §3
Spiral strips of thoracic aorta are suspended in Kreb's-Henseleit solution and aerated with 95% O2 /5% CO2 at 37° C. Tension changes are recorded with a Grass FTO3 force transducer. Initially, cumulative dose response curves to 11,9-(epoxymethano) PGH2 (2×10^-9, 1×10^-8, 5×10^-8 and 2.5×10^-7 M) are obtained. In a second experiment the individual compounds are added 30 mins previous to the addition of the series of agonist doses. Affinity constants are calculated as above.

Human Platelets [2] = assay: Antagonism of ADP aggregatory action on platelets; format: cell-based
α-adrenoceptors = assay: Block of contractile action of noradrenaline (α-adrenoceptors); format: cell-based, rabbit; details: in words
platelet = assay: Block of aggregatory action of arachidonic acid on platelets; format: cell-based, human; details: in words
[3] = vs 11,9-(epoxymethano) PGH2, compound added 30 mins before, Gaddum-Schild

Compound	Kb (Human Platelets [1]) [nM]	Kb (Rabbit Aorta; [3]) [nM]	further results
O=C(O)CCC/C=C\C[C@H]1[C@H]2CC[C@H](C2)[C@@H]1C=NNC(=O)Nc1ccccc1 (relative stereo) [drawing 31]	1430	769	
CN(C)c1ccc(C(=O)NN=C[C@H]2[C@@H]3CC[C@@H](C3)[C@@H]2C/C=C\CCCC(=O)O)cc1 (relative stereo)	10000		AFFINITY CONSTANTS (KB) Rabbit Aorta (Rabbit Aorta; [3]): < 2.5e-05 L/mol
COc1ccc(C(=O)NN=C[C@H]2[C@@H]3CC[C@@H](C3)[C@@H]2C/C=C\CCCC(=O)O)cc1 (relative stereo)		5000	
O=C(O)CCC/C=C\C[C@H]1[C@H]2CC[C@H](C2)[C@@H]1C=NNC(=O)C(c1ccccc1)c1ccccc1 (relative stereo)	1390	256	Kb (Human Platelets [2]; antagonism of ADP, table head gives liters/mole, 5 min): 8330 nM; antagonism of ADP (Human Platelets [2]; in words): Slight antagonism of ADP
O=C(O)CCC/C=C\C[C@H]1[C@H]2CC[C@H](C2)[C@@H]1C=NNC(=O)Cc1ccccc1 (relative stereo)		1490	
O=C(O)CCC/C=C\C[C@H]1[C@H]2CC[C@H](C2)[C@@H]1C=NNC(=O)Nc1ccccc1 (relative stereo) [Example 3, 5-endo-(6'-carboxyhex-2'Z-enyl)-6-exo-[N-(phenylcarbamoyl)-hydrazonomethyl]-bicyclo[2,2,1]heptane]			block of contractile action of noradrenaline (α-adrenoceptors): do not block the contractile action of noradrenaline; block of aggregatory action of arachidonic acid (platelet): block the aggregatory action of archidonic acid; inhibition of aggregatory activity of 11,9-(epoxymethano) PGH2 / antagonism in platelet test (Human Platelets [1]): antagonists in the platelet test; antagonist/agonist character in rabbit aorta strip test (Rabbit Aorta): pure antagonists in the rabbit aorta strip test
O=C(O)CCC/C=C\C[C@H]1[C@H]2CC[C@H](C2)[C@@H]1C=NNC(=O)c1ccc(F)cc1 (relative stereo) [Example 1, 5-endo-(6'-Caboxyhex-2'Z-enyl)-6-exo-(N-p-fluorobenzoylhydrazonomethyl)-bicyclo[2,2,1]heptane]			block of contractile action of noradrenaline (α-adrenoceptors): do not block the contractile action of noradrenaline; block of aggregatory action of arachidonic acid (platelet): block the aggregatory action of archidonic acid; inhibition of aggregatory activity of 11,9-(epoxymethano) PGH2 / antagonism in platelet test (Human Platelets [1]): antagonists in the platelet test; antagonist/agonist character in rabbit aorta strip test (Rabbit Aorta): pure antagonists in the rabbit aorta strip test
O=C(O)CCC/C=C\C[C@H]1[C@H]2CC[C@H](C2)[C@@H]1C=NNC(=O)CC(c1ccccc1)c1ccccc1 (relative stereo)	500	1520	
O=C(O)CCCCCC[C@H]1[C@H]2CC[C@H](C2)[C@@H]1C=NNC(=O)Nc1ccccc1 (relative stereo)	1450	1200	
O=C(O)CCC/C=C\C[C@H]1[C@H]2CC[C@H](C2)[C@@H]1C=NNC(=O)c1ccc(F)cc1 (relative stereo) [drawing 24]	4760	1280	
O=C(O)CCC/C=C\C[C@H]1[C@H]2CC[C@H](C2)[C@@H]1C=NNC(=O)COc1ccccc1 (relative stereo)	19200	2700	
